What was measured:
[1] = individuals who have high cholesterol; cited from earlier work
[2] = format: physicochemical; settings: pH 7
Excerpt: Creatine Formulation: A solution of surfactants was made by combining soy lecithin with 48-98% acetone insolubility (3.1 to 9.9 g/100 g as in dispersion or 9.2 to 16.9 g/100 g as in powder) in water (pH 7.0), with maltodextrin MD040 (Maltrin®, Grain Processing Corporation, 4.9-10.2 g/100 g as in dispersion or 12.4-17.7 g/100 g as in powder). Then the micronized (200 Mesh size or 70-80 μm) creatine monohydrate (23.7-40.2 g/100 g as in dispersion or 65.2-79.3 g/100 g as in powder), along with Alpha cyclodextrin (Cavamax®, Wacker Chemie AG, 0-0.26 g/100 g as in dispersion or 0-0.4 g/100 g as in powder), was added to the above solution of surfactants. After premixing the dispersion, it was run through the homogenizer at 500 psi/34 bar, 1 pass. The dispersion thus formed was heated to a pasteurization temperature of 72° C., for 30 min. Finally, this dispersion was spray dried, with TInlet=220-230° C. and TOutlet=92-100° C. Creatine shelf stability was evaluated at pH 3.3-7.0.
For the shelf-stability study, the corresponding spray-dried powders produced from the slurry were used for determining the chemical stability of limited-solubility organic compounds either in a neutral pH (6.8-7.0) drink or an acidic pH (3.3-3.7) drink formula. For this determination, the limited-solubility organic compound-containing beverages were prepared at their respective pHs, using spray-dried powder. […]

| Compound | reduction of cholesterol [1] | creatine degradation curve (y=% creatine levels, after (x) number of days) [2] |
| --- | --- | --- |
| CN(CC(=O)O)C(=N)N [creatine] | up to 15% | – |
| CN(CC(=O)O)C(=N)N.O [creatine monohydrate] | – | y=48.294e^−0.024x |

Source: patent US12568991B2, “Method for increasing the solubility and stability of organic compositions” (GLANBIA DAIRY NUTRITION LIMITED, priority 2017, dated 2026)
